Legend:
[1] = Inhibition of Tg2576 mouse amyloid beta40 aggregation measured after 3 days by ELISA
Homo sapiens = organism: Homo sapiens; test: Inhibition of amyloid beta (17 to 42) (unknown origin) aggregation at 10 uM by thioflavin T-based fluorimetric assay

| SMILES | IC50 [1] | inhibition (Homo sapiens) |
| --- | --- | --- |
| COc1cc(/C=C/C(=O)CC(=O)/C=C/c2ccc(O)c(OC)c2)ccc1O [CURCUMIN] | 1000 nM | – |
| O=C1c2ccccc2C(=O)N1CCCNC1CCN(Cc2ccccc2)CC1 | – | 10% |
| CCN(CC)CCCCCCCN1C(=O)c2ccccc2C1=O | – | 39.4% |
| O=C1c2ccccc2C(=O)N1CCCCCNCc1ccccc1 | – | 10% |
| c1ccc(CN2CCC(NCCCCCCn3ccc4ccccc43)CC2)cc1 | – | 56% |
| CCN(CC)CCCCCCN1C(=O)c2ccccc2C1=O | – | 0% |

— ChEMBL document CHEMBL3872251, “Computational approach for the assessment of inhibitory potency against beta-amyloid aggregation” (Bioorg Med Chem Lett, 2017)
